Test system: α-amylase
Experiment: α-Amylase inhibition (anti-diabetic)
Format: biochemical
Details: equal concentrations (1000 µg/mL); mean ± SE

Structure (SMILES)	Inhibition (%) α-Amylase
COc1ccc(Nc2n[nH]c(N=Cc3c(C)n(C)n(-c4ccccc4)c3=O)c2C(=O)Nc2ccc(Cl)cc2)cc1 [7f]	32.31 ± 0.05%

Test system: α-glucosidase
Experiment: α-Glucosidase inhibition (anti-diabetic)
Format: biochemical
Details: equal concentrations (1000 µg/mL); mean ± SE

Structure (SMILES)	Inhibition (%) α-Glucosidase
COc1ccc(Nc2n[nH]c(N=Cc3c(C)n(C)n(-c4ccccc4)c3=O)c2C(=O)Nc2ccc(Cl)cc2)cc1 [7f]	27.79 ± 0.05%

Target: acetylcholinesterase (AChE) (Homo sapiens, UniProt P22303)
Sequence (P22303 32-614, species assumed): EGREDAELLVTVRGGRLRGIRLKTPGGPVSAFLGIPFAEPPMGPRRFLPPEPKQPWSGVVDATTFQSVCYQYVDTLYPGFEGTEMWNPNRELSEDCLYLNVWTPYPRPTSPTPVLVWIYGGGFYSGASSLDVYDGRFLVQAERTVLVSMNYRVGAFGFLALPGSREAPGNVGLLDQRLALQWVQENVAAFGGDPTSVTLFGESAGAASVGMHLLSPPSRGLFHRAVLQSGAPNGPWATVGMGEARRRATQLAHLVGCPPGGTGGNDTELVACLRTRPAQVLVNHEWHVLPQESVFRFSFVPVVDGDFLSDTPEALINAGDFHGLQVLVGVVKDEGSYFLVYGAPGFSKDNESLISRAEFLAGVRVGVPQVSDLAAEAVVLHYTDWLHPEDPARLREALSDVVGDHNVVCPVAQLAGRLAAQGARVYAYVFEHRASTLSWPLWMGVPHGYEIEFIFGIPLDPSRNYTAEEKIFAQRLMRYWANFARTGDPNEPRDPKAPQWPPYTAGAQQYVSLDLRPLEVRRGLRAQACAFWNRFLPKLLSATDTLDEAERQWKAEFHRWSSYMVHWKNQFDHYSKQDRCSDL
Experiment: biochemical
Details: same concentration (1000 µg/mL); mean ± SE

Structure (SMILES)	Inhibition (%) Acetylcholinesterase	inhibition at 1000 µg/mL
COc1ccc(Nc2n[nH]c(N=Cc3c(C)n(C)n(-c4ccccc4)c3=O)c2C(=O)Nc2ccc(Cl)cc2)cc1 [7f]	62.00 ± 0.04%	62.11 ± 0.04%

Target: bovine serum albumin (BSA) (Bos taurus, UniProt P02769)
Sequence (P02769 25-607): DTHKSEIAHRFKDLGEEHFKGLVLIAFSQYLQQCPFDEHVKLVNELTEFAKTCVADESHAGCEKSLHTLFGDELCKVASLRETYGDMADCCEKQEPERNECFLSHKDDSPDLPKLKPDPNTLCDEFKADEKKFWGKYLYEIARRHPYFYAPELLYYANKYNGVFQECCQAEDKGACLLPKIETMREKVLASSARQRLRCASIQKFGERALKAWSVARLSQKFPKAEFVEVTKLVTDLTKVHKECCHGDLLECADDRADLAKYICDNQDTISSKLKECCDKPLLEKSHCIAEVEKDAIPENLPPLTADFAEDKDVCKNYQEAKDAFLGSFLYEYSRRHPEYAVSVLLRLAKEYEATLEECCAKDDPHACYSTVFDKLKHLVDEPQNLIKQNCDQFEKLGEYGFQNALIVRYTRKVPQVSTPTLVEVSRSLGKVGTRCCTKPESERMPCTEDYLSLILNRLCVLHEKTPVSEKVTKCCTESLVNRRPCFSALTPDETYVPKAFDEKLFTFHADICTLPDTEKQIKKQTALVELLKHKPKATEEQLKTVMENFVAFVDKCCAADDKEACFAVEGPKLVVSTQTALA
Experiment: not given
Details: equal concentrations (1000 µg/mL); mean ± SE

Structure (SMILES)	Inhibition (%) Protein Denaturation
COc1ccc(Nc2n[nH]c(N=Cc3c(C)n(C)n(-c4ccccc4)c3=O)c2C(=O)Nc2ccc(Cl)cc2)cc1 [7f]	27.75 ± 0.03%

Test system: proteinase enzyme (trypsin)
Experiment: Proteinase enzyme inhibition (anti-inflammatory)
Format: biochemical
Details: equal concentrations (1000 µg/mL); mean ± SE

Structure (SMILES)	Inhibition (%) Proteinase
COc1ccc(Nc2n[nH]c(N=Cc3c(C)n(C)n(-c4ccccc4)c3=O)c2C(=O)Nc2ccc(Cl)cc2)cc1 [7f]	24.13 ± 0.03%

Test system: human colon cancer (Caco-2) cell line
Experiment: cells
Format: cell-based
Details: Conc.: 5a 13.45, 5d 12.64, 5e 12.29, 5f 11.81, 7a 12.72, 7f 11.24, DOX 11.50

Structure (SMILES)	Viability %, Caco-2, 1st concentration
COc1ccc(Nc2n[nH]c(N=Cc3c(C)n(C)n(-c4ccccc4)c3=O)c2C(=O)Nc2ccc(Cl)cc2)cc1 [7f]	81.68%

Same assay, conditions: Conc.: 5a 26.91, 5d 25.27, 5e 24.58, 5f 23.63, 7a 25.43, 7f 22.48, DOX 23.00

Structure (SMILES)	Viability %, Caco-2, 2nd concentration
COc1ccc(Nc2n[nH]c(N=Cc3c(C)n(C)n(-c4ccccc4)c3=O)c2C(=O)Nc2ccc(Cl)cc2)cc1 [7f]	73.16%

Same assay, conditions: Conc.: 5a 53.81, 5d 50.55, 5e 49.15, 5f 47.26, 7a 50.86, 7f 44.96, DOX 46.00

Structure (SMILES)	Viability %, Caco-2, 3rd concentration
COc1ccc(Nc2n[nH]c(N=Cc3c(C)n(C)n(-c4ccccc4)c3=O)c2C(=O)Nc2ccc(Cl)cc2)cc1 [7f]	54.13%

Same assay, conditions: Conc.: 5a 107.63, 5d 101.09, 5e 98.31, 5f 94.51, 7a 101.72, 7f 89.93, DOX 91.99

Structure (SMILES)	Viability %, Caco-2, 4th concentration
COc1ccc(Nc2n[nH]c(N=Cc3c(C)n(C)n(-c4ccccc4)c3=O)c2C(=O)Nc2ccc(Cl)cc2)cc1 [7f]	31.97%

Same assay, conditions: Conc.: 5a 215.26, 5d 202.19, 5e 196.61, 5f 189.03, 7a 203.44, 7f 179.85, DOX 183.99

Structure (SMILES)	Viability %, Caco-2, 5th concentration
COc1ccc(Nc2n[nH]c(N=Cc3c(C)n(C)n(-c4ccccc4)c3=O)c2C(=O)Nc2ccc(Cl)cc2)cc1 [7f]	24.59%

Same assay, conditions: Homo sapiens, Caco-2; 48 h, MTT; mean ± SE; read-out: Cytotoxic activity IC50, Colon (Caco-2)

Structure (SMILES)	IC50
COc1ccc(Nc2n[nH]c(N=Cc3c(C)n(C)n(-c4ccccc4)c3=O)c2C(=O)Nc2ccc(Cl)cc2)cc1 [7f]	49.01 ± 0.24 µM

Same assay, conditions: IC50 on normal cells (WI-38)/IC50 on Caco-2

Structure (SMILES)	Therapeutic Index (TI), Colon (Caco-2)
COc1ccc(Nc2n[nH]c(N=Cc3c(C)n(C)n(-c4ccccc4)c3=O)c2C(=O)Nc2ccc(Cl)cc2)cc1 [7f]	11.06

Test system: not listed separately
Experiment: Cytotoxic activity, MTT assay, normal lung (WI-38)
Format: cell-based
Details: human, WI-38 normal lung cells, Conc. as printed: 5a 53.81, 5d 50.55, 5e 49.15, 5f 47.26, 7a 50.86, 7f 44.96, DOX 46.00; read-out: Viability %, WI-38, 3rd concentration

Structure (SMILES)	viability at 48 h
COc1ccc(Nc2n[nH]c(N=Cc3c(C)n(C)n(-c4ccccc4)c3=O)c2C(=O)Nc2ccc(Cl)cc2)cc1 [7f]	79.3%

Same assay, conditions: human, WI-38 normal lung cells, Conc. as printed: 5a 107.63, 5d 101.09, 5e 98.31, 5f 94.51, 7a 101.72, 7f 89.93, DOX 91.99; read-out: Viability %, WI-38, 4th concentration

Structure (SMILES)	viability at 48 h
COc1ccc(Nc2n[nH]c(N=Cc3c(C)n(C)n(-c4ccccc4)c3=O)c2C(=O)Nc2ccc(Cl)cc2)cc1 [7f]	73.3%

Same assay, conditions: human, WI-38 normal lung cells, Conc.: 5a 13.45, 5d 12.64, 5e 12.29, 5f 11.81, 7a 12.72, 7f 11.24, DOX 11.50; read-out: Viability %, WI-38, 1st concentration

Structure (SMILES)	viability at 48 h
COc1ccc(Nc2n[nH]c(N=Cc3c(C)n(C)n(-c4ccccc4)c3=O)c2C(=O)Nc2ccc(Cl)cc2)cc1 [7f]	95.2%

Same assay, conditions: human, WI-38 normal lung cells, Conc.: 5a 26.91, 5d 25.27, 5e 24.58, 5f 23.63, 7a 25.43, 7f 22.48, DOX 23.00; read-out: Viability %, WI-38, 2nd concentration

Structure (SMILES)	viability at 48 h
COc1ccc(Nc2n[nH]c(N=Cc3c(C)n(C)n(-c4ccccc4)c3=O)c2C(=O)Nc2ccc(Cl)cc2)cc1 [7f]	87.2%

Same assay, conditions: human, WI-38 normal lung cells, Conc.: 5a 215.26, 5d 202.19, 5e 196.61, 5f 189.03, 7a 203.44, 7f 179.85, DOX 183.99; read-out: Viability %, WI-38, 5th concentration

Structure (SMILES)	viability at 48 h
COc1ccc(Nc2n[nH]c(N=Cc3c(C)n(C)n(-c4ccccc4)c3=O)c2C(=O)Nc2ccc(Cl)cc2)cc1 [7f]	59.2%

Same assay, conditions: human, WI-38 normal lung cells; 48 h, MTT; mean ± SE; read-out: Cytotoxic activity IC50, Normal Lung (WI-38)

Structure (SMILES)	IC50 at 48 h
COc1ccc(Nc2n[nH]c(N=Cc3c(C)n(C)n(-c4ccccc4)c3=O)c2C(=O)Nc2ccc(Cl)cc2)cc1 [7f]	543 ± 8.52 µM

Test system: caspase-3
Experiment: Caspase-3 ELISA in treated A549 cells
Format: cell-based, human
Details: DMSO control 85.92 ± 0.12

Structure (SMILES)	Caspase-3 level, Lung (A549)
COc1ccc(Nc2n[nH]c(N=Cc3c(C)n(C)n(-c4ccccc4)c3=O)c2C(=O)Nc2ccc(Cl)cc2)cc1 [7f]	244.88 ± 0.34 pg/mL

Test system: Bcl-2
Experiment: Bcl-2 ELISA in treated A549 cells
Format: cell-based, human
Details: DMSO control 9.83 ± 0.05

Structure (SMILES)	Bcl-2 level, Lung (A549)
COc1ccc(Nc2n[nH]c(N=Cc3c(C)n(C)n(-c4ccccc4)c3=O)c2C(=O)Nc2ccc(Cl)cc2)cc1 [7f]	3.45 ± 0.02 ng/mL

Test system: caspase-3
Experiment: Caspase-3 ELISA in treated Caco-2 cells
Format: cell-based, human
Details: DMSO control 97.06 ± 0.14

Structure (SMILES)	Caspase-3 level, Colon (Caco-2)
COc1ccc(Nc2n[nH]c(N=Cc3c(C)n(C)n(-c4ccccc4)c3=O)c2C(=O)Nc2ccc(Cl)cc2)cc1 [7f]	276.62 ± 0.41 pg/mL

Test system: Bcl-2
Experiment: Bcl-2 ELISA in treated Caco-2 cells
Format: cell-based, human
Details: DMSO control 7.99 ± 0.08

Structure (SMILES)	Bcl-2 level, Colon (Caco-2)
COc1ccc(Nc2n[nH]c(N=Cc3c(C)n(C)n(-c4ccccc4)c3=O)c2C(=O)Nc2ccc(Cl)cc2)cc1 [7f]	2.80 ± 0.03 ng/mL

Test system: not listed separately
Experiment: Iron-reducing power (IRP)
Details: equal concentrations (1000 µg/mL); mean ± SE, three replicates

Structure (SMILES)	Iron-Reducing Power (IRP)
COc1ccc(Nc2n[nH]c(N=Cc3c(C)n(C)n(-c4ccccc4)c3=O)c2C(=O)Nc2ccc(Cl)cc2)cc1 [7f]	35.45 ± 0.07 µg/mL

Test system: not listed separately
Experiment: ABTS radical scavenging assay
Details: equal concentrations (1000 µg/mL); mean ± SE
Description: All in vitro biological activities were assessed in the tested compounds at equal concentrations (1000 µg/mL). All assays were carried out in triplicate.
In vitro biological activities
The total antioxidant capacity (TAC) was determined by analyzing the green phosphate/Mo5+ complex at a wavelength (λ) of 695 nm, following the procedure described by Prieto
et al. Samples (at each concentration) were mixed with a reagent solution containing 0.3 N sulfuric
acid, 28 mM sodium phosphate, and 4 mM ammonium molybdate. Methanol (80%) was used in place
of the sample for the blank. The tubes were sealed and incubated in a boiling water bath for 90
minutes. After cooling to room temperature, the absorbance was measured at 695 nm against the
blank. Ascorbic acid was used at the same concentrations as a standard. The antioxidant capacity was
expressed as mg gallic acid equivalent per gram weight.
The iron reducing power was determined as µg/mL using the method proposed by Oyaizu
In brief, 1ml of the tested sample (at each concentration) was combined with 1mL of 200mM
sodium phosphate buffer (pH 6.6) and 1mL of 1% potassium ferricyanide. The mixture was then
incubated at 50°C for 20 minutes, followed by the addition of 1mL of trichloroacetic acid (10%). After
centrifugation at 2000rpm for 10 minutes, the upper layer solution (2.5 mL) was mixed with 2.5 mL of double deionized water and 1mL of fresh ferric chloride (0.1%). The absorbance was measured at
700nm against a blank prepared without the sample. Ascorbic acid was used at the same
concentrations as a standard. A high absorbance at 700nm indicates a higher reducing power in the
The 1,1-Diphenyl-2-picryl-hydrazyl (DPPH) radical scavenging activities were evaluated using the method described by Rahman et al. An antioxidant substance capable of donating a
hydrogen atom to a solution containing DPPH- can reduce the stable free radical, causing the solution
to change color from violet to pale yellow. The remaining DPPH- radical was quantified by
nm using a spectroscopic method. Two milliliters of a DPPH solution (100 µM) in ethanol were mixed
with 2 mL of the sample (at each concentration). The reaction mixture for each concentration was
thoroughly vortexed and then incubated in the dark at room temperature for 30 minutes. The
absorbance was then measured spectrophotometrically at 518 nm against a blank (ethanol). For the
control, 2 mL of ethanol was added instead of the sample and run simultaneously with the test.
Ascorbic acid was used at the same concentrations as a positive control. Percent inhibition of the
DPPH free radical was calculated. The median inhibitory concentration (IC 50) for each tested
The procedure for the 2,2'-azinobis-(3-ethylbenzothiazoline-6-sulfonic acid) (ABTS) assay
potassium persulfate solution (2.4 mM). The working solution was prepared by mixing the two stock
solutions in equal quantities and allowing them to react at room temperature in a dark place for 14
hours. The solution was then diluted by mixing 1 mL of ABTS solution with 60 mL of methanol to
was prepared for each assay. The tested samples (at each concentration) were allowed to react with 1
mL of the ABTS solution, and the absorbance was taken at 734 nm after 7 minutes using a
spectrophotometer. The ABTS scavenging capacities of the samples were compared with that of
ascorbic acid (at the same concentrations).

Structure (SMILES)	ABTS (%) inhibition
COc1ccc(Nc2n[nH]c(N=Cc3c(C)n(C)n(-c4ccccc4)c3=O)c2C(=O)Nc2ccc(Cl)cc2)cc1 [7f]	78.05 ± 0.05%

Test system: not listed separately
Experiment: DPPH radical-scavenging activity
Details: read-out: DPPH (IC50); mean ± SE, three replicates

Structure (SMILES)	IC50
COc1ccc(Nc2n[nH]c(N=Cc3c(C)n(C)n(-c4ccccc4)c3=O)c2C(=O)Nc2ccc(Cl)cc2)cc1 [7f]	21.37 ± 0.01 µM

Test system: human lung cancer (A549) cell line
Experiment: Cytotoxic activity, MTT assay, lung (A549)
Details: Conc.: 5a 13.45, 5d 12.64, 5e 12.29, 5f 11.81, 7a 12.72, 7f 11.24, DOX 11.50

Structure (SMILES)	Viability %, A549, 1st concentration
COc1ccc(Nc2n[nH]c(N=Cc3c(C)n(C)n(-c4ccccc4)c3=O)c2C(=O)Nc2ccc(Cl)cc2)cc1 [7f]	96.21%

Same assay, conditions: Conc.: 5a 26.91, 5d 25.27, 5e 24.58, 5f 23.63, 7a 25.43, 7f 22.48, DOX 23.00

Structure (SMILES)	Viability %, A549, 2nd concentration
COc1ccc(Nc2n[nH]c(N=Cc3c(C)n(C)n(-c4ccccc4)c3=O)c2C(=O)Nc2ccc(Cl)cc2)cc1 [7f]	86.06%

Same assay, conditions: Conc.: 5a 53.81, 5d 50.55, 5e 49.15, 5f 47.26, 7a 50.86, 7f 44.96, DOX 46.00

Structure (SMILES)	Viability %, A549, 3rd concentration
COc1ccc(Nc2n[nH]c(N=Cc3c(C)n(C)n(-c4ccccc4)c3=O)c2C(=O)Nc2ccc(Cl)cc2)cc1 [7f]	59.66%

Same assay, conditions: Conc.: 5a 107.63, 5d 101.09, 5e 98.31, 5f 94.51, 7a 101.72, 7f 89.93, DOX 91.99

Structure (SMILES)	Viability %, A549, 4th concentration
COc1ccc(Nc2n[nH]c(N=Cc3c(C)n(C)n(-c4ccccc4)c3=O)c2C(=O)Nc2ccc(Cl)cc2)cc1 [7f]	45.23%

Same assay, conditions: Conc.: 5a 215.26, 5d 202.19, 5e 196.61, 5f 189.03, 7a 203.44, 7f 179.85, DOX 183.99

Structure (SMILES)	Viability %, A549, 5th concentration
COc1ccc(Nc2n[nH]c(N=Cc3c(C)n(C)n(-c4ccccc4)c3=O)c2C(=O)Nc2ccc(Cl)cc2)cc1 [7f]	18.95%

Same assay, conditions: Homo sapiens, A549, 48 h, read-out: Cytotoxic activity IC50, Lung (A549)

Structure (SMILES)	IC50
COc1ccc(Nc2n[nH]c(N=Cc3c(C)n(C)n(-c4ccccc4)c3=O)c2C(=O)Nc2ccc(Cl)cc2)cc1 [7f]	55.74 ± 0.24 µM

Test system: not listed separately
Experiment: Total antioxidant capacity (TAC), phosphomolybdenum method
Details: equal concentrations (1000 µg/mL); mean ± SE, three replicates

Structure (SMILES)	Total Antioxidant Capacity (TAC)
COc1ccc(Nc2n[nH]c(N=Cc3c(C)n(C)n(-c4ccccc4)c3=O)c2C(=O)Nc2ccc(Cl)cc2)cc1 [7f]	54.04 ± 0.20 mg Gallic Acid/g

From article PMC11125359 (Pharmaceuticals, 2024)
